Source: US12539292B2, “BRM targeting compounds and associated methods of use” (Arvinas Operations, Inc., priority 2018, dated 2026)
Read-outs that look alike come from different tables or passages of the source.

Target: T1, BRM (Homo sapiens, UniProt P51531)
T1 construct: In-Cell Western Screen of BRM Degradation in SW1573 Cells; endogenous in cells; host or cells: SW1573
Assay: In-cell Western screen of BRM degradation in SW1573 cells (Dmax and DC50)
Format: cell-based
Details: BRM degradation, SW1573 cells
Procedure: In-Cell Western Screen of BRM Degradation in SW1573 Cells
To assess BRM degradation (Dmax and DC50), cells were seeded at 8000/well in 96-well black/clear-bottom plates in 180 μL DMEM growth media (containing 1% pen-strep, 1% HEPES and 10% FBS) per well. Plates were incubated overnight to allow adhesion. The next morning cells were treated by adding 20 μL of 10× compound (1% DMSO) to appropriate wells and returned to incubator for overnight (18-20 hours). The final DMSO concentration was 0.1%.
For processing, the plates were removed from incubator, the media was removed, and immediately 200 μL of cold (4° C.) DPBS was added to all wells. DPBS was then removed, and 50 μL of 4% paraformaldehyde (PFA) in DPBS (4° C.) was added to all wells, and the plates were incubated at room temperature for 20 minutes. PFA was then removed, and 200 μL of TBS-T containing 0.5% Triton X-100 was added to all wells, and the plates were incubated at room temperature for 30 minutes. TBS-T containing 0.5% Triton X-100 was then removed, and 50 μL of Li-Cor blocking solution was added, and the plates were incubated at room temperature for a minimum of one hour.
The next day plates were washed three times with TBS-T, 200 μL per well. Fifty (50) μL of secondary antibody cocktail in LI-COR blocking solution (anti-rabbit_800 nm and anti-mouse_680 nm) was added to all wells (diluted 1:5000). The plates were incubated at room temperature for at least one hour while protected from light. The plates were washed twice with TBS-T, 200 μL per well.
To read each plate TBS-T was removed, and each plate was inverted tapped on a paper towel. The plates were read on the LI-COR Odyssey with default intensity settings of 5.0 for both channels. LI-COR images were analyzed with the in-cell Western feature of Image Studio Lite.

[1] = Table 2D, read-out: **Dmax (%) (% degraded)

T1 sequence (P51531 whole entry): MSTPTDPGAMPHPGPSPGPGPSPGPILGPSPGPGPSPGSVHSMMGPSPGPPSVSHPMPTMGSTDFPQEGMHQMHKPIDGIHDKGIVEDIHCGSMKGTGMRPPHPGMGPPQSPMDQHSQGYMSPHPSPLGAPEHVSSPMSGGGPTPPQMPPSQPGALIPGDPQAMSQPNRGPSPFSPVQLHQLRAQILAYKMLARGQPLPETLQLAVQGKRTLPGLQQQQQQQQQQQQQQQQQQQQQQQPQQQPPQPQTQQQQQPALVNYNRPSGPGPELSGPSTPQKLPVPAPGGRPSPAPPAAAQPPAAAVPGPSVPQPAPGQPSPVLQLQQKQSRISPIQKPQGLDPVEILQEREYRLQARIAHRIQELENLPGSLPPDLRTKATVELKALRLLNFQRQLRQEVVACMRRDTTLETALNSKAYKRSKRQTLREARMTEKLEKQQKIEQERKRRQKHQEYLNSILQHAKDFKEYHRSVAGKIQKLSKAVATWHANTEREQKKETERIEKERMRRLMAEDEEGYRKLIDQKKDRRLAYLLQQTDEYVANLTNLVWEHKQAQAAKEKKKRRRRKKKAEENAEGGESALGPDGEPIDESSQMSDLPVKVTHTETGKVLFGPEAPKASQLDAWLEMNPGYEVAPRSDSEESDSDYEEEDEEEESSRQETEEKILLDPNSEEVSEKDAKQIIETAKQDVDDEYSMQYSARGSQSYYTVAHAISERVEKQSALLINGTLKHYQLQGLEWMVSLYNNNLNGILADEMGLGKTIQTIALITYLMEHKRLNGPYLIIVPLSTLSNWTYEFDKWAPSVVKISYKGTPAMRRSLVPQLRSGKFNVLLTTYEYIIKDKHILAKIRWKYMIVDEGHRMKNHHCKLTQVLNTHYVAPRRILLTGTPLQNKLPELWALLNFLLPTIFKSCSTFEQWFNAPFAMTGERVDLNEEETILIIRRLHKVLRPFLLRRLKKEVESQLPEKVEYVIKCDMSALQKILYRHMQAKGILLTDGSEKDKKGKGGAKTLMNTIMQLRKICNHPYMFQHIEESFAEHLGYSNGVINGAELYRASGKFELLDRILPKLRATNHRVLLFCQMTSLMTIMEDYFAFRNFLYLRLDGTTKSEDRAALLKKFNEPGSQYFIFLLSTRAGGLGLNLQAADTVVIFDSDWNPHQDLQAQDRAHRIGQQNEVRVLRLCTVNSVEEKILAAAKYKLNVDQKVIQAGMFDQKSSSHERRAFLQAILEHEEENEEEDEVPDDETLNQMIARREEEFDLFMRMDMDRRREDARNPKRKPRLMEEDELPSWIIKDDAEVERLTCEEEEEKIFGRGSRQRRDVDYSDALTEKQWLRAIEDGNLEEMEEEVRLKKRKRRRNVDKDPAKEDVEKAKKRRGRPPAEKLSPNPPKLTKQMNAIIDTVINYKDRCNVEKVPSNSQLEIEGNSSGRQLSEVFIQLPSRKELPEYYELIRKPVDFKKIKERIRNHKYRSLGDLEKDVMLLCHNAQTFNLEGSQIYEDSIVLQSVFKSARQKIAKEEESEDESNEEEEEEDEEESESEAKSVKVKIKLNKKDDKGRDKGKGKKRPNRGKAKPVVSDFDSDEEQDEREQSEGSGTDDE

Row | SMILES | Dmax [1] [%] | DC50 (Table 2D, read-out: *DC50) [nM] | DC50 (read-out: DC50) [nM] | Dmax (read-out: Dmax (% degraded)) [%]
1 | Cc1ncsc1-c1ccc([C@H](C)NC(=O)[C@@H]2C[C@@H](O)CN2C(=O)[C@@H](c2cc(OCC[C@H]3CCN(C[C@H]4C[C@H](Oc5cc(N6C7CCC6CN(c6cc(-c8ccccc8O)nnc6N)C7)ccn5)C4)C[C@@H]3C)no2)C(C)C)cc1 (racemic) [compound 577, (2S,4R)-1-((2R)-2-(3-(2-((3R,4R)-1-(((1r,3R)-3-((4-(3-(3-amino-6-(2-hydroxyphenyl)pyridazin-4-yl)-3,8-diazabicyclo[3.2.1]octan-8-yl)pyridin-2-yl)oxy)cyclobutyl)methyl)-3-methylpiperidin-4-yl)ethoxy)isoxazol-5-yl)-3-methylbutanoyl)-4-hydroxy-N-((S)-1-(4-(4-methylthiazol-5-yl)phenyl)ethyl)pyrrolidine-2-carboxamide] | > 75 | < 2.5 | – | –
2 | Cc1ncsc1-c1ccc([C@H](C)NC(=O)[C@@H]2C[C@@H](O)CN2C(=O)[C@H](c2cc(OCC[C@H]3CCN(C[C@H]4C[C@H](Oc5cc(N6C7CCC6CN(c6cc(-c8ccccc8O)nnc6N)C7)ccn5)C4)C[C@@H]3C)no2)C(C)C)cc1 (racemic) [compound 578, (2S,4R)-1-((2S)-2-(3-(2-((3R,4R)-1-(((1r,3R)-3-((4-(3-(3-amino-6-(2-hydroxyphenyl)pyridazin-4-yl)-3,8-diazabicyclo[3.2.1]octan-8-yl)pyridin-2-yl)oxy)cyclobutyl)methyl)-3-methylpiperidin-4-yl)ethoxy)isoxazol-5-yl)-3-methylbutanoyl)-4-hydroxy-N-((S)-1-(4-(4-methylthiazol-5-yl)phenyl)ethyl)pyrrolidine-2-carboxamide] | > 75 | < 2.5 | – | –
3 | Cc1ncsc1-c1ccc([C@H](C)NC(=O)[C@@H]2C[C@@H](O)CN2C(=O)[C@H](c2cc(OCC[C@@H]3CCN(C[C@H]4C[C@H](Oc5cc(N6C7CCC6CN(c6cc(-c8ccccc8O)nnc6N)C7)ccn5)C4)[C@H](C)C3)no2)C(C)C)cc1 (racemic) [compound 579, (2S,4R)-1-((2S)-2-(3-(2-((2R,4R)-1-(((1r,3R)-3-((4-(3-(3-amino-6-(2-hydroxyphenyl)pyridazin-4-yl)-3,8-diazabicyclo[3.2.1]octan-8-yl)pyridin-2-yl)oxy)cyclobutyl)methyl)-2-methylpiperidin-4-yl)ethoxy)isoxazol-5-yl)-3-methylbutanoyl)-4-hydroxy-N-((S)-1-(4-(4-methylthiazol-5-yl)phenyl)ethyl)pyrrolidine-2-carboxamide] | > 75 | < 2.5 | – | –
4 | Cc1ncsc1-c1ccc([C@H](C)NC(=O)[C@@H]2C[C@@H](O)CN2C(=O)[C@@H](c2cc(OCC[C@@H]3CCN(C[C@H]4C[C@H](Oc5cc(N6C7CCC6CN(c6cc(-c8ccccc8O)nnc6N)C7)ccn5)C4)[C@H](C)C3)no2)C(C)C)cc1 (racemic) [compound 580, (2S,4R)-1-((2R)-2-(3-(2-((2R,4R)-1-(((1r,3R)-3-((4-(3-(3-amino-6-(2-hydroxyphenyl)pyridazin-4-yl)-3,8-diazabicyclo[3.2.1]octan-8-yl)pyridin-2-yl)oxy)cyclobutyl)methyl)-2-methylpiperidin-4-yl)ethoxy)isoxazol-5-yl)-3-methylbutanoyl)-4-hydroxy-N-((S)-1-(4-(4-methylthiazol-5-yl)phenyl)ethyl)pyrrolidine-2-carboxamide] | > 75 | < 2.5 | – | –
5 | Cc1ncsc1-c1ccc([C@H](C)NC(=O)[C@@H]2C[C@@H](O)CN2C(=O)[C@H](c2cc(OCC[C@@H]3CCN(C[C@H]4C[C@H](Oc5cc(N6C7CCC6CN(c6cc(-c8ccccc8O)nnc6N)C7)ccn5)C4)[C@@H](C)C3)no2)C(C)C)cc1 (racemic) [compound 581, (2S,4R)-1-((2S)-2-(3-(2-((2S,4R)-1-(((1r,3S)-3-((4-(3-(3-amino-6-(2-hydroxyphenyl)pyridazin-4-yl)-3,8-diazabicyclo[3.2.1]octan-8-yl)pyridin-2-yl)oxy)cyclobutyl)methyl)-2-methylpiperidin-4-yl)ethoxy)isoxazol-5-yl)-3-methylbutanoyl)-4-hydroxy-N-((S)-1-(4-(4-methylthiazol-5-yl)phenyl)ethyl)pyrrolidine-2-carboxamide] | > 75 | < 2.5 | – | –
6 | Cc1ncsc1-c1ccc([C@H](C)NC(=O)[C@@H]2C[C@@H](O)CN2C(=O)[C@@H](c2cc(OCC[C@@H]3CCN(C[C@H]4C[C@H](Oc5cc(N6C7CCC6CN(c6cc(-c8ccccc8O)nnc6N)C7)ccn5)C4)[C@@H](C)C3)no2)C(C)C)cc1 (racemic) [compound 582, (2S,4R)-1-((2R)-2-(3-(2-((2S,4R)-1-(((1r,3S)-3-((4-(3-(3-amino-6-(2-hydroxyphenyl)pyridazin-4-yl)-3,8-diazabicyclo[3.2.1]octan-8-yl)pyridin-2-yl)oxy)cyclobutyl)methyl)-2-methylpiperidin-4-yl)ethoxy)isoxazol-5-yl)-3-methylbutanoyl)-4-hydroxy-N-((S)-1-(4-(4-methylthiazol-5-yl)phenyl)ethyl)pyrrolidine-2-carboxamide] | > 75 | < 2.5 | – | –
7 | Cc1ncsc1-c1ccc([C@H](C)NC(=O)[C@@H]2C[C@@H](O)CN2C(=O)C(c2cc(OCCN3[C@H](C)C[C@H](O[C@H]4C[C@H](Oc5cc(N6C7CCC6CN(c6cc(-c8ccccc8O)nnc6N)C7)ccn5)C4)C[C@@H]3C)no2)C(C)C)cc1 (mixture of isomers) [compound 635, (2S,4R)-1-(2-(3-(2-((2S,4S,6R)-4-((1r,3R)-3-((4-(3-(3-amino-6-(2-hydroxyphenyl)pyridazin-4-yl)-3,8-diazabicyclo[3.2.1]octan-8-yl)pyridin-2-yl)oxy)cyclobutoxy)-2,6-dimethylpiperidin-1-yl)ethoxy)isoxazol-5-yl)-3-methylbutanoyl)-4-hydroxy-N-((S)-1-(4-(4-methylthiazol-5-yl)phenyl)ethyl)pyrrolidine-2-carboxamide] | – | – | < 2.5 | > 75
8 | Cc1ncsc1-c1ccc([C@H](C)NC(=O)[C@@H]2C[C@@H](O)CN2C(=O)[C@@H](c2cc(N3CCC(CN4CCC([C@H](C)n5cc(-c6cc(-c7ccccc7O)nnc6N)cn5)CC4)CC3)no2)C(C)C)cc1 (single isomer, unassigned) [compound 573] | > 75 | < 2.5 | – | –
9 | Cc1ncsc1-c1ccc([C@H](C)NC(=O)[C@@H]2C[C@@H](O)CN2C(=O)[C@@H](c2cc(N3CCC(CN4CCC([C@@H](C)n5cc(-c6cc(-c7ccccc7O)nnc6N)cn5)CC4)CC3)no2)C(C)C)cc1 (single isomer, unassigned) [compound 574] | > 75 | < 2.5 | – | –
10 | Cc1ncsc1-c1ccc([C@H](C)NC(=O)[C@@H]2C[C@@H](O)CN2C(=O)[C@H](c2cc(OCC[C@@H]3CCN(C[C@H]4C[C@H](Oc5cc(N6C7CCC6CN(c6cc(-c8ccccc8O)nnc6N)C7)ccn5)C4)[C@H](C)[C@@H]3C)no2)C(C)C)cc1 (single isomer, unassigned) [compound 583] | – | > 30 | – | –
11 | Cc1ncsc1-c1ccc([C@H](C)NC(=O)[C@@H]2C[C@@H](O)CN2C(=O)[C@@H](c2cc(OCC[C@@H]3CCN(C[C@H]4C[C@H](Oc5cc(N6C7CCC6CN(c6cc(-c8ccccc8O)nnc6N)C7)ccn5)C4)[C@H](C)[C@@H]3C)no2)C(C)C)cc1 (single isomer, unassigned) [compound 584] | > 75 | < 2.5 | – | –
12 | Cc1ncsc1-c1ccc([C@H](C)NC(=O)[C@@H]2C[C@@H](O)CN2C(=O)[C@H](c2cc(OCC[C@H]3CCN(C[C@H]4C[C@H](Oc5cc(N6C7CCC6CN(c6cc(-c8ccccc8O)nnc6N)C7)ccn5)C4)[C@@H](C)[C@H]3C)no2)C(C)C)cc1 (single isomer, unassigned) [compound 585] | > 75 | 2.5 to 10 | – | –
13 | Cc1ncsc1-c1ccc([C@H](C)NC(=O)[C@@H]2C[C@@H](O)CN2C(=O)[C@@H](c2cc(OCC[C@H]3CCN(C[C@H]4C[C@H](Oc5cc(N6C7CCC6CN(c6cc(-c8ccccc8O)nnc6N)C7)ccn5)C4)[C@@H](C)[C@H]3C)no2)C(C)C)cc1 (single isomer, unassigned) [compound 586] | > 75 | < 2.5 | – | –
14 | Cc1ncsc1-c1ccc([C@H](C)NC(=O)[C@@H]2C[C@@H](O)CN2C(=O)[C@H](c2cc(N3CCC(OC4CCN(CC5CC(CN6CCC([C@H](C)n7cc(-c8cc(-c9ccccc9O)nnc8N)cn7)CC6)C5)CC4)CC3)no2)C(C)C)cc1 (single isomer, unassigned) [compound 593] | > 75 | < 2.5 | – | –
15 | Cc1ncsc1-c1ccc([C@H](C)NC(=O)[C@@H]2C[C@@H](O)CN2C(=O)[C@@H](c2cc(N3CCC(OC4CCN(CC5CC(CN6CCC([C@H](C)n7cc(-c8cc(-c9ccccc9O)nnc8N)cn7)CC6)C5)CC4)CC3)no2)C(C)C)cc1 (single isomer, unassigned) [compound 594] | > 75 | < 2.5 | – | –
